Common to all, as to assay type: biochemical
The target of one assay is phosphor-Axl (Homo sapiens (Human), UniProt P30530). Briefly: TAM Enzymatic Assay (HTRF), Axl. The note with it: recombinant autophosphorylated Axl, 60 min, room temperature. In general terms: Time-resolved FRET reads energy transfer from a long-lived donor to a nearby acceptor.
Another assay addresses Tyro3 (Homo sapiens (Human), UniProt Q06418). Kind of assay: TAM Enzymatic Assay (HTRF), Tyro3. The note with it: Tyro3, 60 min, room temperature. Summed up:
(§1)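 Reactions ran 60 min at room temperature, protected from light, started by substrate addition to enzyme plus DMSO compound, in pH 7.5 HEPES buffer with 10 mM MgCl2, 1 mM EGTA, 0.01% NP-40, 2 mM DTT.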

For another assay, the target named is c-Mer (Homo sapiens (Human), UniProt Q12866). Briefly: TAM Enzymatic Assay (HTRF), Mer. The note with it: 60 min, room temperature. The method in brief: as §1

Here are results for 20 compounds from US9981975B2, “Pyrrolotriazine compounds as tam inhibitors” (Incyte Corporation, priority 2016, dated 2018).

Sequence of c-Mer (Q12866 21-999): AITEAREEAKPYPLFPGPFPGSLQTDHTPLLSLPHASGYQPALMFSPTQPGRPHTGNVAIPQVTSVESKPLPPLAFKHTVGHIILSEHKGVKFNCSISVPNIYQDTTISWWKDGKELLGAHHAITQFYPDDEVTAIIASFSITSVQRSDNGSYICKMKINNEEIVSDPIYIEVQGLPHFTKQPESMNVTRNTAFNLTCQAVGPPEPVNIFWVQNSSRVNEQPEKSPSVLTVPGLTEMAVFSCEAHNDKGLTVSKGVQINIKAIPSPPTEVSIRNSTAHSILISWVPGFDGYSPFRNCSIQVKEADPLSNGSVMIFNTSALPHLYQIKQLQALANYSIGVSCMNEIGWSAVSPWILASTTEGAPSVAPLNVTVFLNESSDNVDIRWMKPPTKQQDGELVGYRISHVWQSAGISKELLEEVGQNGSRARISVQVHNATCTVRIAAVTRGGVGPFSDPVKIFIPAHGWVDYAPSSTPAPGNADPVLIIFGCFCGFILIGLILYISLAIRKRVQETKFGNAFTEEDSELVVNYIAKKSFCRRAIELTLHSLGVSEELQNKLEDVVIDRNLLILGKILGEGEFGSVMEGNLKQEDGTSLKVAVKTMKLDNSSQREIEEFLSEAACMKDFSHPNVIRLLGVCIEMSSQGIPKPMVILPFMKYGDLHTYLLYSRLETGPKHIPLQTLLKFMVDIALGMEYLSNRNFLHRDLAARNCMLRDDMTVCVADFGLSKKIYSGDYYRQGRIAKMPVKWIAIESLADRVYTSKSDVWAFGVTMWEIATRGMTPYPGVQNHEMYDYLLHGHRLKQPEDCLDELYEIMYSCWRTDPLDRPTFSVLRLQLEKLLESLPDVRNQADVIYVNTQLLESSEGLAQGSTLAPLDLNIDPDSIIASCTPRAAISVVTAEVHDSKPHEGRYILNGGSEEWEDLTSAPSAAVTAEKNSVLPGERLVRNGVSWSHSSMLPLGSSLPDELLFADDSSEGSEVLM
Sequence of Tyro3 (Q06418 41-890): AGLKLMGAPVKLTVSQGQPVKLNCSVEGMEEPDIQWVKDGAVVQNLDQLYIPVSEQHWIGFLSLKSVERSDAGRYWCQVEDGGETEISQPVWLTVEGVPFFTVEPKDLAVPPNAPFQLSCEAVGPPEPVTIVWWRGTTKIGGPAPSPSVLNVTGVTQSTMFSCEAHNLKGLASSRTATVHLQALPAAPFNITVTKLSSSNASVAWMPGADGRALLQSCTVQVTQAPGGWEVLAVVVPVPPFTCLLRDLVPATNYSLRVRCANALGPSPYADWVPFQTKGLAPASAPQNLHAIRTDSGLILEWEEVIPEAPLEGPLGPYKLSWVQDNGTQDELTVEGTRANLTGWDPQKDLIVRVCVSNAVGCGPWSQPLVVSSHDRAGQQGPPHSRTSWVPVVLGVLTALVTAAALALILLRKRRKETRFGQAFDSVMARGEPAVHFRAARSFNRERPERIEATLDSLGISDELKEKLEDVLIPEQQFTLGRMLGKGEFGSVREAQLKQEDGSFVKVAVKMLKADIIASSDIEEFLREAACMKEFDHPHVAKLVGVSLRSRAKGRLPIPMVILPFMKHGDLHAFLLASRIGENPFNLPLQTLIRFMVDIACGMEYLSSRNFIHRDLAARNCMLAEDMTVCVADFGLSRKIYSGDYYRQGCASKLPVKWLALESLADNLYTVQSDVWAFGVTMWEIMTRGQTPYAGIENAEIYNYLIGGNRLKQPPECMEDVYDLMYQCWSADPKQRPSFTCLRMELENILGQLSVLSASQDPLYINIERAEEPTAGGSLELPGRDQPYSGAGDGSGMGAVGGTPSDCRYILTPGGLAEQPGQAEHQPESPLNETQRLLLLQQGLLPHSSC
Sequence of phosphor-Axl (P30530 26-894): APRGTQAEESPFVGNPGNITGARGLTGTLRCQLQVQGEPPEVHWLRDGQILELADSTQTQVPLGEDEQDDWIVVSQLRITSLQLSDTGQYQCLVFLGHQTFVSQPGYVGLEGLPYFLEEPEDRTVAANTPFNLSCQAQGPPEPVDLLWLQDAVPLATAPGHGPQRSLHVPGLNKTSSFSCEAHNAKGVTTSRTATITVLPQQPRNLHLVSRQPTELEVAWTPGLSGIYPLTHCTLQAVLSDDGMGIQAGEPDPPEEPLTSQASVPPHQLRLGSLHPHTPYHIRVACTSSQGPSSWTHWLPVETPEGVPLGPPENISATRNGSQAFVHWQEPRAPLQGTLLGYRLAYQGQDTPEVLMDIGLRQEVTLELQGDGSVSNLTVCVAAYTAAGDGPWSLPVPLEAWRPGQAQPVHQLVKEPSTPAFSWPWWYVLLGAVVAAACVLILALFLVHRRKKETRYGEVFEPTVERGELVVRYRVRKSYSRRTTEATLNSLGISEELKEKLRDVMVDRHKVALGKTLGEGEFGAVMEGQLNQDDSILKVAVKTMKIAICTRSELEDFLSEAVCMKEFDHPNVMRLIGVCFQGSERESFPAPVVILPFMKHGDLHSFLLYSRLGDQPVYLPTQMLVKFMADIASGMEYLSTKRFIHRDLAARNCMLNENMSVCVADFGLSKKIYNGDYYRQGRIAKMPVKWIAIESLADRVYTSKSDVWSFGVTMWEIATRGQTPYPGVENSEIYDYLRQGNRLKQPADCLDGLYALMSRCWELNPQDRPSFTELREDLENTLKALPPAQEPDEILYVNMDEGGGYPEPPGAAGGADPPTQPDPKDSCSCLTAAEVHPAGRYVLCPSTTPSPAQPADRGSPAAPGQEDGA

As to `Cc1c(Br)cc(C(=O)Nc2ccc(-c3cc(C4CCN(C(=O)C(C)C)CC4)n4ncnc(N)c34)cc2)c(=O)n1-c1ccccn1` [Example 118, N-(4-(4-Amino-7-(1-isobutyrylpiperidin-4-yl)pyrrolo[2,1-f][1,2,4]triazin-5-yl)phenyl)-5-bromo-6-methyl-2-oxo-2H-[1,2′-bipyridine]-3-carboxamide], the IC50 (commonly the point on the concentration scale where inhibition reaches its midpoint) was not above 5 nM on phosphor-Axl, more than 100 nM against Tyro3 and not above 5 nM against c-Mer.
On to `Cc1c(CC#N)cc(C(=O)Nc2ccc(-c3cc(C4CCN(C(=O)C(C)C)CC4)n4ncnc(N)c34)cc2)c(=O)n1-c1cncc(F)c1` [Example 102, N-(4-(4-Amino-7-(1-isobutyrylpiperidin-4-yl)pyrrolo[2,1-f][1,2,4]triazin-5-yl)phenyl)-5-(cyanomethyl)-5′-fluoro-6-methyl-2-oxo-2H-[1,3′-bipyridine]-3-carboxamide], for which the 50% inhibitory concentration (IC50) at phosphor-Axl was not above 5 nM; against Tyro3, 10 to 100 nM; against c-Mer it was not above 5 nM.
For `CC(=O)N1CCC(c2cc(-c3ccc(NC(=O)c4cccn(-c5ccccc5)c4=O)cc3F)c3c(N)ncnn23)CC1` [Example 26, N-{4-[7-(1-Acetylpiperidin-4-yl)-4-aminopyrrolo[2,1-f][1,2,4]triazin-5-yl]-3-fluorophenyl}-2-oxo-1-phenyl-1,2-dihydropyridine-3-carboxamide], the IC50 on phosphor-Axl was not above 5 nM; against Tyro3, 10 to 100 nM; against c-Mer it was not above 5 nM.
`Cc1c(-c2ccn(C)n2)cc(C(=O)Nc2ccc(-c3cc(C4CCN(C(=O)C(C)C)CC4)n4ncnc(N)c34)cc2)c(=O)n1-c1cccnc1` [Example 135, N-(4-(4-Amino-7-(1-isobutyrylpiperidin-4-yl)pyrrolo[2,1-f][1,2,4]triazin-5-yl)phenyl)-6-methyl-5-(1-methyl-1H-pyrazol-3-yl)-2-oxo-2H-[1,3′-bipyridine]-3-carboxamide]: the IC50 was not above 5 nM on phosphor-Axl, more than 100 nM against Tyro3 and not above 5 nM at c-Mer.
In the case of `Cc1c(CC#N)cc(C(=O)Nc2ccc(-c3cc(C4CCN(C(=O)C(C)C)CC4)n4ncnc(N)c34)cc2)c(=O)n1-c1ccccn1` [Example 122, N-(4-(4-Amino-7-(1-isobutyrylpiperidin-4-yl)pyrrolo[1,2-f][1,2,4]triazin-5-yl)phenyl)-5-(cyanomethyl)-6-methyl-2-oxo-1-(pyridin-2-yl)-1,2-dihydropyridine-3-carboxamide], the 50% inhibitory concentration (IC50) is not above 5 nM at phosphor-Axl, more than 100 nM against Tyro3 and not above 5 nM against c-Mer.
Consider `CC(C)C(=O)N1CCC(c2cc(-c3ccc(NC(=O)c4cc5c(n(-c6cncc(F)c6)c4=O)CCCC5=O)cc3)c3c(N)ncnn23)CC1` [Example 113, N-(4-(4-Amino-7-(1-isobutyrylpiperidin-4-yl)pyrrolo[1,2-f][1,2,4]triazin-5-yl)phenyl)-1-(5-fluoropyridin-3-yl)-2,5-dioxo-1,2,5,6,7,8-hexahydroquinoline-3-carboxamide], for which the IC50 at phosphor-Axl was not above 5 nM; against Tyro3 it was 10 to 100 nM; against c-Mer it was not above 5 nM.
Take `CC(C)C(=O)N1CCC(c2cc(-c3ccc(NC(=O)c4cn(C(C)C)c(=O)n(-c5ccccc5)c4=O)cc3)c3c(N)ncnn23)CC1` [Example 63, N-(4-(4-Amino-7-(1-isobutyrylpiperidin-4-yl)pyrrolo[1,2-f][1,2,4]triazin-5-yl)phenyl)-1-isopropyl-2,4-dioxo-3-phenyl-1,2,3,4-tetrahydropyrimidine-5-carboxamide]: the IC50 is not above 5 nM at phosphor-Axl, 10 to 100 nM on Tyro3 and not above 5 nM on c-Mer.
As to `Cc1cc(C(=O)Nc2ccc(-c3cc(C4CCN(C(=O)C(C)C)CC4)n4ncnc(N)c34)cc2)c(=O)n(-c2ccccc2)c1-c1cccnc1` [Example 106, N-(4-(4-Amino-7-(1-isobutyrylpiperidin-4-yl)pyrrolo[2,1-f][1,2,4]triazin-5-yl)phenyl)-3-methyl-6-oxo-1-phenyl-1,6-dihydro-[2,3′-bipyridine]-5-carboxamide], the 50% inhibitory concentration (IC50) was not above 5 nM at phosphor-Axl, more than 100 nM against Tyro3 and not above 5 nM on c-Mer.
`CS(=O)(=O)N1CCC(c2cc(-c3ccc(NC(=O)c4cccn(-c5ccccc5)c4=O)cc3F)c3c(N)ncnn23)CC1` [Example 42]: the IC50 at phosphor-Axl is not above 5 nM; on Tyro3, 10 to 100 nM; against c-Mer it was not above 5 nM.
For the compound `Cc1c(Cl)cc(C(=O)Nc2ccc(-c3cc(C4CCN(C(=O)C(C)C)CC4)n4ncnc(N)c34)cc2)c(=O)n1-c1cccnc1` [Example 131, N-(4-(4-amino-7-(1-isobutyrylpiperidin-4-yl)pyrrolo[2,1-f][1,2,4]triazin-5-yl)phenyl)-5-chloro-6-methyl-2-oxo-2H-[1,3′-bipyridine]-3-carboxamide], the IC50 at phosphor-Axl is not above 5 nM; on Tyro3, more than 100 nM; at c-Mer, not above 5 nM.
For the compound `Cc1c(-c2cscn2)cc(C(=O)Nc2ccc(-c3cc(C4CCN(C(=O)C(C)C)CC4)n4ncnc(N)c34)cc2)c(=O)n1-c1cncc(F)c1` [Example 103, N-(4-(4-Amino-7-(1-isobutyrylpiperidin-4-yl)pyrrolo[2,1-f][1,2,4]triazin-5-yl)phenyl)-5′-fluoro-6-methyl-2-oxo-5-(thiazol-4-yl)-2H-[1,3′-bipyridine]-3-carboxamide], the IC50 was not above 5 nM on phosphor-Axl, 10 to 100 nM at Tyro3 and not above 5 nM against c-Mer.
For the compound `Nc1ncnn2c(C3CCNCC3)cc(-c3ccc(NC(=O)c4cccn(-c5ccccc5)c4=O)cc3)c12` [Example 32, N-[4-(4-Amino-7-piperidin-4-ylpyrrolo[2,1-f][1,2,4]triazin-5-yl)phenyl]-2-oxo-1-phenyl-1,2-dihydropyridine-3-carboxamide], the IC50 on phosphor-Axl is not above 5 nM; against Tyro3, 10 to 100 nM; against c-Mer, not above 5 nM.
Take `CC(C)C(=O)N1CCC(c2cc(-c3ccc(NC(=O)c4cn(C5CC5)c(=O)n(-c5ccccc5)c4=O)cc3)c3c(N)ncnn23)CC1` [Example 139, N-(4-(4-Amino-7-(1-isobutyrylpiperidin-4-yl)pyrrolo[2,1-f][1,2,4]triazin-5-yl)phenyl)-1-cyclopropyl-2,4-dioxo-3-phenyl-1,2,3,4-tetrahydropyrimidine-5-carboxamide]: the IC50 was not above 5 nM at phosphor-Axl, more than 100 nM at Tyro3 and not above 5 nM against c-Mer.
With `Cc1cc(C(=O)Nc2ccc(-c3cc(C4CCN(C(=O)C(C)C)CC4)n4ncnc(N)c34)cc2)c(=O)n(-c2cccnc2)c1C` [Example 132, N-(4-(4-Amino-7-(1-isobutyrylpiperidin-4-yl)pyrrolo[2,1-f][1,2,4]triazin-5-yl)phenyl)-5,6-dimethyl-2-oxo-2H-[1,3′-bipyridine]-3-carboxamide], the values for the 50% inhibitory concentration (IC50) on phosphor-Axl, against Tyro3 and on c-Mer were not above 5 nM, more than 100 nM and not above 5 nM, respectively.
Regarding `CC(C)C(=O)N1CCC(c2cc(-c3ccc(NC(=O)c4cn(C(C)C)c(=O)n(-c5ccccn5)c4=O)cc3)c3c(N)ncnn23)CC1` [Example 83, N-(4-(4-Amino-7-(1-isobutyrylpiperidin-4-yl)pyrrolo[1,2-f][1,2,4]triazin-5-yl)phenyl)-1-isopropyl-2,4-dioxo-3-(pyridin-2-yl)-1,2,3,4-tetrahydropyrimidine-5-carboxamide], the IC50 was not above 5 nM on phosphor-Axl, 10 to 100 nM against Tyro3 and not above 5 nM against c-Mer.
Turning to `Nc1ncnn2c(C3CCNCC3)cc(-c3ccc(NC(=O)c4cccn(-c5ccc(F)cc5)c4=O)cc3)c12` [Example 33, N-[4-(4-Amino-7-piperidin-4-ylpyrrolo[2,1-f][1,2,4]triazin-5-yl)phenyl]-1-(4-fluorophenyl)-2-oxo-1,2-dihydropyridine-3-carboxamide], the 50% inhibitory concentration (IC50) is not above 5 nM at phosphor-Axl, 10 to 100 nM at Tyro3 and not above 5 nM against c-Mer.
As to `Cc1c(-c2ccn(C)n2)cc(C(=O)Nc2ccc(-c3cc(C4CCN(C(=O)C(C)C)CC4)n4ncnc(N)c34)cc2)c(=O)n1-c1ccccn1` [Example 125, N-(4-(4-Amino-7-(1-isobutyrylpiperidin-4-yl)pyrrolo[2,1-f][1,2,4]triazin-5-yl)phenyl)-6-methyl-5-(1-methyl-1H-pyrazol-3-yl)-2-oxo-2H-[1,2′-bipyridine]-3-carboxamide], the IC50 is not above 5 nM at phosphor-Axl, more than 100 nM on Tyro3 and not above 5 nM against c-Mer.
Turning to `CC(C)C(=O)N1CCC(c2cc(-c3ccc(NC(=O)c4cn(C(C)C)c(=O)n(-c5ccccc5)c4=O)cc3F)c3c(N)ncnn23)CC1` [Example 75, N-(4-(4-Amino-7-(1-isobutyrylpiperidin-4-yl)pyrrolo[1,2-f][1,2,4]triazin-5-yl)-3-fluorophenyl)-1-isopropyl-2,4-dioxo-3-phenyl-1,2,3,4-tetrahydropyrimidine-5-carboxamide], the IC50 was not above 5 nM at phosphor-Axl, 10 to 100 nM at Tyro3 and not above 5 nM against c-Mer.
With `CN1CCC(c2cc(-c3ccc(NC(=O)c4cccn(-c5ccccc5)c4=O)cc3F)c3c(N)ncnn23)CC1` [Example 22, N-{4-[4-Amino-7-(1-methylpiperidin-4-yl)pyrrolo[2,1-f][1,2,4]triazin-5-yl]-3-fluorophenyl}-2-oxo-1-phenyl-1,2-dihydropyridine-3-carboxamide], the IC50 at phosphor-Axl was not above 5 nM; against Tyro3 it was 10 to 100 nM; on c-Mer, not above 5 nM.
As for `CN(C)C(=O)N1CCC(c2cc(-c3ccc(NC(=O)c4cccn(-c5ccccc5)c4=O)cc3F)c3c(N)ncnn23)CC1` [Example 46, N-[4-(4-Amino-7-{1-[(dimethylamino)carbonyl]piperidin-4-yl}pyrrolo[2,1-f][1,2,4]triazin-5-yl)-3-fluorophenyl]-2-oxo-1-phenyl-1,2-dihydropyridine-3-carboxamide], the half-inhibitory concentration (IC50) at phosphor-Axl is not above 5 nM; at Tyro3, 10 to 100 nM; at c-Mer, not above 5 nM.
